We go through twelve sequences from patent US20060263802A1 (priority 2003, published 2006).

Common to all, as to type: binding
Assay [1] relates to human monoclonal antibody CRJA.
In assay [2] the test system is human monoclonal antibody CRJB.
Assay [3] has as its system human monoclonal antibody CRJB. This is another data set of the same source.
The subject of assay [4] is human monoclonal antibody CRJA. The source holds these as a separate data set.
For assay [5], the system named is human monoclonal antibody CR57.
Assay [6] deals with human monoclonal antibody CR57. The source holds these as a separate data set.

“Also recorded” adds a separate entry of the source.

Turning to FRPTPDACRAAYNWK, the “Binding of CRJA to linear peptide (PEPSCAN-ELISA signal)” value (shortened to “Binding of CRJA to linear peptide”) in assay [1] was determined as 104. The “Binding of CRJB to linear peptide (PEPSCAN-ELISA signal)” value (“Binding of CRJB to linear peptide” for short) in assay [2] is 112. Further, in assay [3], the “Binding of CRJB (10 μg/ml) to looped/cyclic peptide (PEPSCAN-ELISA signal)” value stood at 88. The “Binding of CRJA (10 μg/ml) to looped/cyclic peptide (PEPSCAN-ELISA signal)” value in assay [4] stood at 125. Also, the “Binding of CR57 (10 μg/ml) to looped/cyclic peptide (PEPSCAN-ELISA signal)” value in assay [5] came out at 90. For the same sequence, the “Binding of CR57 to linear peptide (PEPSCAN-ELISA signal)” value (“Binding of CR57 to linear peptide” below) in assay [6] worked out at 43.
Consider IHHLSCPNNLVVEDE, for which the “Binding of CRJA to linear peptide” value in assay [1] was 79. In assay [2], the “Binding of CRJB to linear peptide” value was determined as 85. Besides, the “Binding of CRJB (10 μg/ml) to looped/cyclic peptide (PEPSCAN-ELISA signal)” value in assay [3] worked out at 71. In addition, the “Binding of CRJA (10 μg/ml) to looped/cyclic peptide (PEPSCAN-ELISA signal)” value in assay [4] came out at 76. Further, in assay [5], the “Binding of CR57 (10 μg/ml) to looped/cyclic peptide (PEPSCAN-ELISA signal)” value is listed as 46. In addition, the “Binding of CR57 to linear peptide” value in assay [6] is 37.
Take GKAYTIFNKTLMEAD: the “Binding of CRJA to linear peptide” value in assay [1] was found to be 100. The “Binding of CRJB to linear peptide” value in assay [2] turned out to be 127. In assay [3], the “Binding of CRJB (10 μg/ml) to looped/cyclic peptide (PEPSCAN-ELISA)” value worked out at 100. Moreover, the “Binding of CRJA (10 μg/ml) to looped/cyclic peptide (PEPSCAN-ELISA)” value in assay [4] is recorded as 107. Moreover, the “Binding of CR57 (10 μg/ml) to looped/cyclic peptide (PEPSCAN-ELISA)” value in assay [5] came to 114. Besides, the “Binding of CR57 to linear peptide” value in assay [6] is 76.
For CPNNLVVEDEGCTNL, in assay [1], the “Binding of CRJA to linear peptide” value worked out at 75. Besides, in assay [2], the “Binding of CRJB to linear peptide” value amounted to 97. Moreover, in assay [3], the “Binding of CRJB (10 μg/ml) to looped/cyclic peptide (PEPSCAN-ELISA signal)” value was 54. In assay [4], the “Binding of CRJA (10 μg/ml) to looped/cyclic peptide (PEPSCAN-ELISA signal)” value is on record as 84. Besides, in assay [5], the “Binding of CR57 (10 μg/ml) to looped/cyclic peptide (PEPSCAN-ELISA signal)” value worked out at 79. For the same sequence, the “Binding of CR57 to linear peptide” value in assay [6] came to 77.
As for QTSNETKWCPPDQLV, the “Binding of CRJA to linear peptide” value in assay [1] is 90. Also, in assay [2], the “Binding of CRJB to linear peptide” value is listed as 120. Besides, in assay [3], the “Binding of CRJB (10 μg/ml) to looped/cyclic peptide (PEPSCAN-ELISA)” value came to 62. Further, the “Binding of CRJA (10 μg/ml) to looped/cyclic peptide (PEPSCAN-ELISA)” value in assay [4] was 106. Further, in assay [5], the “Binding of CR57 (10 μg/ml) to looped/cyclic peptide (PEPSCAN-ELISA)” value amounted to 118. Besides, the “Binding of CR57 to linear peptide” value in assay [6] is 92.
In the case of TSNETKWCPPDQLVN, the “Binding of CRJA to linear peptide” value in assay [1] came out at 88. Moreover, the “Binding of CRJB to linear peptide” value in assay [2] is listed as 111. The “Binding of CRJB (10 μg/ml) to looped/cyclic peptide (PEPSCAN-ELISA)” value in assay [3] came out at 57. Besides, in assay [4], the “Binding of CRJA (10 μg/ml) to looped/cyclic peptide (PEPSCAN-ELISA)” value was determined as 96. In assay [5], the “Binding of CR57 (10 μg/ml) to looped/cyclic peptide (PEPSCAN-ELISA)” value came out at 134. Moreover, in assay [6], the “Binding of CR57 to linear peptide” value came to 97.
As for LCGVLGLRLMDGTWV, in assay [1], the “Binding of CRJA to linear peptide” value came out at 111. Besides, the “Binding of CRJB to linear peptide” value in assay [2] is reported as 138. Further, the “Binding of CRJB (10 μg/ml) to looped/cyclic peptide (PEPSCAN-ELISA)” value in assay [3] is 104. The “Binding of CRJA (10 μg/ml) to looped/cyclic peptide (PEPSCAN-ELISA)” value in assay [4] is 106. The “Binding of CR57 (10 μg/ml) to looped/cyclic peptide (PEPSCAN-ELISA)” value in assay [5] was 128. The “Binding of CR57 to linear peptide” value in assay [6] is 83.
On to EAENYTNFVGYVTTT, for which the “Binding of CRJA to linear peptide” value in assay [1] is recorded as 62. Also, in assay [2], the “Binding of CRJB to linear peptide” value is given as 117. The “Binding of CRJB (10 μg/ml) to looped/cyclic peptide (PEPSCAN-ELISA signal)” value in assay [3] came to 60. Further, the “Binding of CRJA (10 μg/ml) to looped/cyclic peptide (PEPSCAN-ELISA signal)” value in assay [4] was 54. Also, in assay [5], the “Binding of CR57 (10 μg/ml) to looped/cyclic peptide (PEPSCAN-ELISA signal)” value is on record as 55. Besides, the “Binding of CR57 to linear peptide” value in assay [6] turned out to be 69.
Turning to WMPENPRLGMSCDIF, the “Binding of CRJA to linear peptide” value in assay [1] worked out at 97. The “Binding of CRJB to linear peptide” value in assay [2] was 113. For the same sequence, in assay [3], the “Binding of CRJB (10 μg/ml) to looped/cyclic peptide (PEPSCAN-ELISA signal)” value is on record as 206 and the “binding of antibody CRJB to looped/cyclic peptide (PEPSCAN OD)” value is given as “display reactivity; also recorded: clearly bound”. The “Binding of CRJA (10 μg/ml) to looped/cyclic peptide (PEPSCAN-ELISA signal)” value in assay [4] was 164. Also, in assay [5], the “Binding of CR57 (10 μg/ml) to looped/cyclic peptide (PEPSCAN-ELISA signal)” value amounted to 199 and the “binding of antibody CR57 to looped/cyclic peptide (PEPSCAN OD)” value is given as “clearly bound”. For the same sequence, the “Binding of CR57 to linear peptide” value in assay [6] was determined as 88.
As to LVPGFGKAYTIFNKT, the “Binding of CRJA to linear peptide” value in assay [1] was determined as 83. Moreover, in assay [2], the “Binding of CRJB to linear peptide” value is given as 112. In addition, the “Binding of CRJB (10 μg/ml) to looped/cyclic peptide (PEPSCAN-ELISA)” value in assay [3] came out at 58. Further, the “Binding of CRJA (10 μg/ml) to looped/cyclic peptide (PEPSCAN-ELISA)” value in assay [4] was found to be 58. The “Binding of CR57 (10 μg/ml) to looped/cyclic peptide (PEPSCAN-ELISA)” value in assay [5] stood at 87. Besides, the “Binding of CR57 to linear peptide” value in assay [6] came to 54.
Consider AIKMNGFTCTGVVTE, for which the “Binding of CRJA to linear peptide” value in assay [1] is recorded as 93. Also, the “Binding of CRJB to linear peptide” value in assay [2] is listed as 103. For the same sequence, the “Binding of CRJB (10 μg/ml) to looped/cyclic peptide (PEPSCAN-ELISA signal)” value in assay [3] worked out at 79. Also, in assay [4], the “Binding of CRJA (10 μg/ml) to looped/cyclic peptide (PEPSCAN-ELISA signal)” value came out at 71. The “Binding of CR57 (10 μg/ml) to looped/cyclic peptide (PEPSCAN-ELISA signal)” value in assay [5] was determined as 69. Besides, in assay [6], the “Binding of CR57 to linear peptide” value was determined as 47.
With VLGLRLMDGTWVAMQ, in assay [1], the “Binding of CRJA to linear peptide” value amounted to 107. In addition, in assay [2], the “Binding of CRJB to linear peptide” value is given as 141. Besides, in assay [3], the “Binding of CRJB (10 μg/ml) to looped/cyclic peptide (PEPSCAN-ELISA)” value is 106. Further, the “Binding of CRJA (10 μg/ml) to looped/cyclic peptide (PEPSCAN-ELISA)” value in assay [4] worked out at 108. The “Binding of CR57 (10 μg/ml) to looped/cyclic peptide (PEPSCAN-ELISA)” value in assay [5] turned out to be 94. In assay [6], the “Binding of CR57 to linear peptide” value worked out at 90.
